One assay relates to U-87MG. The assay is described as follows: Anchorage Independent Soft Agar Tumor Growth Assay, U-87MG. It is filed as cell-based. The conditions noted are these: percent of DMSO-treated control at Ymin plateau. The method, then: (§1) Twenty-two Phosphatase and Tensin Homolog (PTEN) wild-type or PTEN deficient tumor cell lines were cultured generally according to instructions supplied by cell culture supplier American Type Culture Collection, Manassas, Va., with 10% fetal bovine serum at 5% CO2 and 37° C. Cells were seeded into either a T-75 or a T-175 flask 3-4 days prior to 96-well assay plating such that the flasks were approximately 70-80% confluent of the time of harvest. Cells were harvested using 0.25% trypsin-EDTA (Invitrogen #25200056). Trypan Blue exclusion staining was used to determine cell number. Viable cells were plated in clear, flat bottom 96-well plates (BD #353075) under anchorage independent conditions at 2,000-10,000 cells per well depending on the cell line. To generate anchorage independent growth conditions, a 5% agar stock solution in water was made and autoclaved to melt and sterilize. […] The next day one plate of cells was processed at the time of compound addition to quantify the starting number of cells (T=0 or T0). […] Following the 6-day incubation, 20 μl of Alamar Blue (Invitrogen #DAL1100) was added to the cells, incubated at 5% CO2 and 37° C. for 6 hours and the plates read on a Spectramax (Gemini EM) at 530 nm (excitation) and 590 nm (emission) with the auto cut-off disabled. […]

Another assay has as its system SW1088. Kind of assay: Anchorage Independent Soft Agar Tumor Growth Assay, SW1088. It is filed as cell-based. The conditions noted are these: percent of DMSO-treated control at Ymin plateau. On the procedure:
as §1

The next assay has as its system UM-UC-3. The assay is described as follows: Anchorage Independent Soft Agar Tumor Growth Assay, UM-UC-3. It is filed as cell-based. The note with it: percent of DMSO-treated control at Ymin plateau. On the procedure: as §1
In a further assay the test system is UACC-62. The assay is described as follows: Anchorage Independent Soft Agar Tumor Growth Assay, UACC-62. It is filed as cell-based. The note with it: percent of DMSO-treated control at Ymin plateau. On the procedure: as §1
In another assay the test system is HCC19377. The assay is described as follows: Anchorage Independent Soft Agar Tumor Growth Assay, HCC19377. The conditions noted are these: percent of DMSO-treated control at Ymin plateau. The class given is cell-based. The method, then:
as §1

The test system of a further assay is CHL-1. The assay is described as follows: Anchorage Independent Soft Agar Tumor Growth Assay, CHL-1. It is filed as cell-based. The note with it: percent of DMSO-treated control at Ymin plateau. The method, then: as §1
The next assay has as its system PC-3. Kind of assay: Anchorage Independent Soft Agar Tumor Growth Assay, PC-3. The note with it: percent of DMSO-treated control at Ymin plateau. It is filed as cell-based, human. The method, then:
as §1

The test system of a further assay is HCC1395. Kind of assay: Anchorage Independent Soft Agar Tumor Growth Assay, HCC1395. It is filed as cell-based. The conditions noted are these: percent of DMSO-treated control at Ymin plateau. The method, then: as §1
The next assay relates to HCC1954. Kind of assay: Anchorage Independent Soft Agar Tumor Growth Assay, HCC1954. It is filed as cell-based. The note with it: percent of DMSO-treated control at Ymin plateau. On the procedure:
as §1

The subject of another assay is HCT-116. The assay is described as follows: Anchorage Independent Soft Agar Tumor Growth Assay, HCT-116. It is filed as cell-based. The conditions noted are these: percent of DMSO-treated control at Ymin plateau. On the procedure:
as §1

The subject of a further assay is BT474. Kind of assay: Anchorage Independent Soft Agar Tumor Growth Assay, BT474. It is filed as cell-based. The conditions noted are these: percent of DMSO-treated control at Ymin plateau. The method, then: as §1
The subject of a further assay is Colo205. The assay is described as follows: Anchorage Independent Soft Agar Tumor Growth Assay, Colo205. The class given is cell-based. The conditions noted are these: percent of DMSO-treated control at Ymin plateau. On the procedure:
as §1

The test system of a further assay is LOXIMVI. Kind of assay: Anchorage Independent Soft Agar Tumor Growth Assay, LOXIMVI. The class given is cell-based. The conditions noted are these: percent of DMSO-treated control at Ymin plateau. On the procedure: as §1
In a further assay the test system is C32. The assay is described as follows: Anchorage Independent Soft Agar Tumor Growth Assay, C32. The class given is cell-based. The conditions noted are these: percent of DMSO-treated control at Ymin plateau. The method, then: as §1
In another assay the test system is U251. The assay is described as follows: Anchorage Independent Soft Agar Tumor Growth Assay, U251. It is filed as cell-based. The conditions noted are these: percent of DMSO-treated control at Ymin plateau. On the procedure: as §1
The next assay deals with H4. The assay is described as follows: Anchorage Independent Soft Agar Tumor Growth Assay, H4. It is filed as cell-based. The note with it: percent of DMSO-treated control at Ymin plateau. The method, then: as §1
Another assay deals with HCC70. Kind of assay: Anchorage Independent Soft Agar Tumor Growth Assay, HCC70. The class given is cell-based. The note with it: percent of DMSO-treated control at Ymin plateau. The method, then:
as §1

The subject of a further assay is SKOV-3. Kind of assay: Anchorage Independent Soft Agar Tumor Growth Assay, SKOV-3. The conditions noted are these: percent of DMSO-treated control at Ymin plateau. It is filed as cell-based. The method, then:
as §1

The next assay concerns SW1783. The assay is described as follows: Anchorage Independent Soft Agar Tumor Growth Assay, SW1783. The conditions noted are these: percent of DMSO-treated control at Ymin plateau. It is filed as cell-based. On the procedure: as §1
Another assay concerns WM-115. The assay is described as follows: Anchorage Independent Soft Agar Tumor Growth Assay, WM-115. It is filed as cell-based. The note with it: percent of DMSO-treated control at Ymin plateau. On the procedure:
as §1

Another assay relates to MDA-MB-468. Kind of assay: Anchorage Independent Soft Agar Tumor Growth Assay, MDA-MB-468. It is filed as cell-based. The note with it: percent of DMSO-treated control at Ymin plateau. On the procedure:
as §1

The next assay relates to pAKT (pAKT/tAKT). Kind of assay: Pharmacodynamic effects, pAKT in PC-3 xenograft tumors. The class given is in vivo, mouse. The note with it: mice given 3 mg/kg or 10 mg/kg, 1-24 hours. On the procedure:
Female nude mice (Charles River Laboratories, Wilmington, Del.; strain CD-1-Foxn1, 6 weeks of age) were injected subcutaneously with 2 million PC-3 (human prostate carcinoma) cells mixed 1:1 with Matrigel in the flank. Tumors were allowed to grow for approximately 5 weeks. […] The tumor was excised. Half of each tumor was immediately processed by Medicon (BD Catalog #340592) in 1 mL Meso-Scale Discovery (MSD) lysis buffer with protease inhibitors (Roche complete protease cocktail, cat#04 693 116 001) and phosphatase inhibitors (Sigma, cat #P2850 and P-5726) for 30-60 seconds and transferred to 1.5 mL Eppendorf tubes. Tubes remained on wet ice until they were centrifuged for 10 minutes at 4° C. at maximum speed in a tabletop refrigerated centrifuge. Tumor lysates were serially diluted in 96-well polypropylene plates on wet ice. Lysates (150 μL) were loaded in row 1; rows 2-12 were loaded with 75 μL of complete Meso Scale Discovery (MSD) lysis buffer (supplied in MSD kit; #[…]-3). Samples were serially diluted 2-fold across the plate by sequential transfer of 75 μL through well 11; row 12 contained lysis buffer only. […] Plates were washed as described above, before the addition of 150 μL of MSD read buffer and read immediately on a 6000 MSD plate reader. […] P/T AKT was calculated as shown: (phospho AKT(Ser473) signal)/[(phospho AKT(Ser473) signal)+(total AKT signal)]. […]

In the next assay the test system is BT549. Kind of assay: Anchorage Independent Soft Agar Tumor Growth Assay, BT549. It is filed as cell-based. The note with it: percent of DMSO-treated control at Ymin plateau.

SMILES strings stand for the structures.

From patent US8541411B2, “Benzimidazole derivatives as PI3 kinase inhibitors” (GlaxoSmithKline LLC, priority 2010, dated 2013) come the findings set out here.

Experimental for BT549: Cells were seeded into either a T-75 or a T-175 flask 3-4 days prior to 96-well assay plating such that the flasks were approximately 70-80% confluent of the time of harvest. Cells were harvested using 0.25% trypsin-EDTA (Invitrogen #25200056). Trypan Blue exclusion staining was used to determine cell number. Viable cells were plated in clear, flat bottom 96-well plates (BD #353075) under anchorage independent conditions at 2,000-10,000 cells per well depending on the cell line. To generate anchorage independent growth conditions, a 5% agar stock solution in water was made and autoclaved to melt and sterilize. From the 5% agar solution, a 0.6% agar/media+10% fetal bovine serum (FBS) solution was made to generate a bottom agar layer in the plates to prevent cell attachment. Seventy five microliters per well of the 0.6% agar-media solution was added to the plates. […] The next day one plate of cells was processed at the time of compound addition to quantify the starting number of cells (T=0 or T0). […] Following the 6-day incubation, 20 μl of Alamar Blue (Invitrogen #DAL1100) was added to the cells, incubated at 5% CO2 and 37° C. for 6 hours and the plates read on a Spectramax (Gemini EM) at 530 nm (excitation) and 590 nm (emission) with the auto cut-off disabled. […]

Turning to `Cc1c(Cn2c(C)nc3c(C(=O)O)cc(N4CCOCC4)cc32)cccc1C(F)(F)F` [Example 31, 2-methyl-1-{[2-methyl-3-(trifluoromethyl)phenyl]methyl}-6-(4-morpholinyl)-1H-benzimidazole-4-carboxylic acid], the “Ymin ± StDev” value with U-87MG is recorded as 34 ± 18; in the assay with SW1088, 36 ± 8; in the assay with UM-UC-3, 83 ± 29; with UACC-62, 76 ± 18; in the assay with HCC19377, 67 ± 8; with CHL-1, 82 ± 2. For the same compound, the “Ymin ± StDev” value is on record as 82 ± 13 in the assay on PC-3; 26 ± 9 in the assay with HCC1395; more than 80 in the assay on HCC1954; more than 80 in the assay on HCT-116; 75 ± 3 with BT474; more than 80 with Colo205. Moreover, the “Ymin ± StDev” value in the assay on LOXIMVI is recorded as more than 90; in the assay with C32, 20 ± 14; with U251, 80 ± 17; in the assay with H4, 55 ± 18; with HCC70, 27 ± 8; in the assay on SKOV-3, more than 80. Further, the “Ymin ± StDev” value with SW1783 amounted to 69 ± 4; in the assay with WM-115, 54 ± 14; in the assay with MDA-MB-468, 44 ± 6; in the assay on BT549, 52 ± 7. Moreover, in the assay with pAKT (pAKT/tAKT), the “inhibition of the pharmacodynamic marker pAKT (pAKT/tAKT)” value is recorded as “dose dependent inhibition”.
